# Measured values: US12577226B2, “Compounds for treating Huntington's disease” (PTC THERAPEUTICS, INC., priority 2019, dated 2026)
# Test system: Endogenous Huntingtin Protein (capture with MW1 (expanded polyglutamine) or MAB2166 antibody)
# Assay: Endogenous Huntingtin Protein Assay (ELISA-based Meso Scale Discovery electrochemiluminescence assay)
# Format: cell-based
# Conditions: MSD electrochemiluminescence platform
# Method in brief: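 MSD electrochemiluminescence sandwich immunoassay: plates coated with 1 μg/mL MW1 or MAB2166 capture antibody, samples incubated overnight at 4 °C. Detection with rabbit monoclonal #5656S then SULFO-TAG anti-rabbit (each 0.25 μg/mL, 1 h RT).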
row,Molecule,IC50
1,"Cc1cn2cc(-c3cnc(-c4cnc(N5CC[C@@H](NC(C)(C)C)C5)nn4)c(O)c3)cc(C#N)c2n1 [Compound 147, 6-(6-{3-[(3R)-3-(tert-butylamino)pyrrolidin-1-yl]-1,2,4-triazin-6-yl}-5-hydroxypyridin-3-yl)-2-methylimidazo[1,2-a]pyridine-8-carbonitrile]",100 to 500 nM
2,"2-(3-{[(3S,4S)-3-fluoro-2,2,6,6-tetramethylpiperidin-4-yl]amino}-1,2,4-triazin-6-yl)-5-(1H-pyrazol-4-yl)pyridin-3-ol and 2-(3-{[(3R,4R)-3-fluoro-2,2,6,6-tetramethylpiperidin-4-yl]amino}-1,2,4-triazin-6-yl)-5-(1H-pyrazol-4-yl)pyridin-3-ol [Compound 139]",≤ 100 nM
3,"CN1CCN(c2ncc(-c3ncc(-c4cn[nH]c4)cc3O)nn2)CC1 [Compound 152, 2-[3-(4-methylpiperazin-1-yl)-1,2,4-triazin-6-yl]-5-(1H-pyrazol-4-yl)pyridin-3-ol]",500 to 1000 nM
4,"Cn1ccc(-c2cnc(-c3ccc(O[C@H]4CC(C)(C)NC(C)(C)[C@H]4F)nn3)c(O)c2)n1 (single isomer, unassigned) [Compound 7, 2-(6-{[(3R,4S)-3-fluoro-2,2,6,6-tetramethylpiperidin-4-yl]oxy}pyridazin-3-yl)-5-(1-methyl-1H-pyrazol-3-yl)pyridin-3-ol or 2-(6-{[(3S,4R)-3-fluoro-2,2,6,6-tetramethylpiperidin-4-yl]oxy}pyridazin-3-yl)-5-(1-methyl-1H-pyrazol-3-yl)pyridin-3-ol]",100 to 500 nM
5,"Cc1n[nH]cc1CNc1cnc(-c2ccc(N3CCNC(C)C3)nn2)c(O)c1 (stereo not shown) [Compound 108, 2-[6-(3-methylpiperazin-1-yl)pyridazin-3-yl]-5-{[(3-methyl-1H-pyrazol-4-yl)methyl]amino}pyridin-3-ol]",500 to 1000 nM
6,"[2H]C([2H])([2H])n1cc(-c2cnc(-c3ccc(O[C@@H]4C[C@H](C)NC5(CC5)C4)nn3)c(O)c2)cn1 [Compound 83, 2-(6-{[(5S,7R)-5-methyl-4-azaspiro[2.5]octan-7-yl]oxy}pyridazin-3-yl)-5-[1-(^2H3)methyl-1H-pyrazol-4-yl]pyridin-3-ol]",100 to 500 nM
7,"5-(2,4-dimethyl-1,3-benzoxazol-6-yl)-2-(6-{[(3R,4S)-3-fluoro-2,2,6,6-tetramethylpiperidin-4-yl]oxy}pyridazin-3-yl)pyridin-3-ol and 5-(2,4-dimethyl-1,3-benzoxazol-6-yl)-2-(6-{[(3S,4R)-3-fluoro-2,2,6,6-tetramethylpiperidin-4-yl]oxy}pyridazin-3-yl)pyridin-3-ol [Compound 56]",≤ 100 nM
8,"2-(6-{[(3R,4S)-3-fluoro-2,2,6,6-tetramethylpiperidin-4-yl]oxy}pyridazin-3-yl)-5-[2-methyl-8-(trifluoromethyl)imidazo[1,2-a]pyridin-6-yl]pyridin-3-ol and 2-(6-{[(3S,4R)-3-fluoro-2,2,6,6-tetramethylpiperidin-4-yl]oxy}pyridazin-3-yl)-5-[2-methyl-8-(trifluoromethyl)imidazo[1,2-a]pyridin-6-yl]pyridin-3-ol [Compound 46]",100 to 500 nM
9,"C[C@@H]1CN(c2ccc(-c3ncc(-c4ccc5c(cnn5C)c4)cc3O)nn2)C[C@H](C)N1 [Compound 126, 2-{6-[(3R,5S)-3,5-dimethylpiperazin-1-yl]pyridazin-3-yl}-5-(1-methyl-1H-indazol-5-yl)pyridin-3-ol and 2-{6-[(3S,5R)-3,5-dimethylpiperazin-1-yl]pyridazin-3-yl}-5-(1-methyl-1H-indazol-5-yl)pyridin-3-ol]",100 to 500 nM
10,"CC1CN(c2ccc(-c3ncc(NCc4cccnc4)cc3O)nn2)CCN1 (stereo not shown) [Compound 110, 2-[6-(3-methylpiperazin-1-yl)pyridazin-3-yl]-5-{[(pyridin-3-yl)methyl]amino}pyridin-3-ol]",500 to 1000 nM
11,"Cn1cc2cc(-c3cnc(-c4ccc(O[C@H]5CC(C)(C)NC(C)(C)[C@H]5F)nn4)c(O)c3)cc(C#N)c2n1 (single isomer, unassigned) [Compound 34, 5-[6-(6-{[(3R,4S)-3-fluoro-2,2,6,6-tetramethylpiperidin-4-yl]oxy}pyridazin-3-yl)-5-hydroxypyridin-3-yl]-2-methyl-2H-indazole-7-carbonitrile or 5-[6-(6-{[(3S,4R)-3-fluoro-2,2,6,6-tetramethylpiperidin-4-yl]oxy}pyridazin-3-yl)-5-hydroxypyridin-3-yl]-2-methyl-2H-indazole-7-carbonitrile]",≤ 100 nM
12,"Cc1cn2cc(-c3cnc(-c4ccc(N5C[C@@H](C)N[C@@H](C)C5)nn4)c(O)c3)ccc2n1 [Compound 92, 2-{6-[(3R,5S)-3,5-dimethylpiperazin-1-yl]pyridazin-3-yl}-5-(2-methylimidazo[1,2-a]pyridin-6-yl)pyridin-3-ol and 2-{6-[(3S,5R)-3,5-dimethylpiperazin-1-yl]pyridazin-3-yl}-5-(2-methylimidazo[1,2-a]pyridin-6-yl)pyridin-3-ol]",≤ 100 nM
13,"CN(c1ncc(-c2ncc(-c3cn[nH]c3F)cc2O)nn1)C1CC(C)(C)NC(C)(C)C1 [Compound 143, 5-(5-fluoro-1H-pyrazol-4-yl)-2-{3-[methyl(2,2,6,6-tetramethylpiperidin-4-yl)amino]-1,2,4-triazin-6-yl}pyridin-3-ol]",100 to 500 nM

# More lines, now with the values ahead:
row,IC50,Molecule
1,≤ 100 nM,"C[C@@H]1CN(c2ccc(-c3ncc(-c4cc(F)c5nn(C)cc5c4)cc3O)nn2)CCN1 [Compound 104, 5-(7-fluoro-2-methyl-2H-indazol-5-yl)-2-{6-[(3R)-3-methylpiperazin-1-yl]pyridazin-3-yl}pyridin-3-ol]"
2,≤ 100 nM,"COc1cc(-c2cnc(-c3ccc(OC4CC(C)(C)NC(C)(C)C4)nn3)c(O)c2)ncn1 [Compound 74, 5-(6-methoxypyrimidin-4-yl)-2-{6-[(2,2,6,6-tetramethylpiperidin-4-yl)oxy]pyridazin-3-yl}pyridin-3-ol]"
3,≤ 100 nM,"CC1(C)CC(Oc2ccc(-c3ncc(-c4nccs4)cc3O)nn2)CC2(CC2)N1 (stereo not shown) [Compound 79, 2-{6-[(5,5-dimethyl-4-azaspiro[2.5]octan-7-yl)oxy]pyridazin-3-yl}-5-(1,3-thiazol-2-yl)pyridin-3-ol]"
4,≤ 100 nM,"CC1(C)CC(Oc2ccc(-c3ncc(-c4ncco4)cc3O)nn2)CC(C)(C)N1 [Compound 10, 5-(1,3-oxazol-2-yl)-2-{6-[(2,2,6,6-tetramethylpiperidin-4-yl)oxy]pyridazin-3-yl}pyridin-3-ol]"
5,≤ 100 nM,"Cc1ncc(-c2cnc(-c3ccc(N4CC[C@@H](NC(C)(C)C)C4)nn3)c(O)c2)o1 [Compound 76, 2-{6-[(3R)-3-(tert-butylamino)pyrrolidin-1-yl]pyridazin-3-yl}-5-(2-methyl-1,3-oxazol-5-yl)pyridin-3-ol]"
6,≤ 100 nM,"Cn1cc2cc(-c3cnc(-c4ccc(N5CCNC6(CC6)C5)nn4)c(O)c3)cc(F)c2n1 [Compound 98, 2-[6-(4,7-diazaspiro[2.5]octan-7-yl)pyridazin-3-yl]-5-(7-fluoro-2-methyl-2H-indazol-5-yl)pyridin-3-ol]"
7,≤ 100 nM,"CC1(C)CC(Oc2ccc(-c3ncc(-c4cn[nH]c4)cc3O)nn2)CC2(COC2)N1 (stereo not shown) [Compound 114, 2-{6-[(6,6-dimethyl-2-oxa-5-azaspiro[3.5]nonan-8-yl)oxy]pyridazin-3-yl}-5-(1H-pyrazol-4-yl)pyridin-3-ol]"
8,≤ 100 nM,"2-(3-{[(3R,4R)-3-fluoro-2,2,6,6-tetramethylpiperidin-4-yl]amino}-1,2,4-triazin-6-yl)-5-[1-(^2H3)methyl-1H-pyrazol-4-yl]pyridin-3-ol and 2-(3-{[(3S,4S)-3-fluoro-2,2,6,6-tetramethylpiperidin-4-yl]amino}-1,2,4-triazin-6-yl)-5-[1-(^2H3)methyl-1H-pyrazol-4-yl]pyridin-3-ol [Compound 140]"
9,≤ 100 nM,"[2H]C([2H])([2H])n1cc(-c2cnc(-c3ccc(N4CCN[C@@H](C5CC5)C4)nn3)c(O)c2)cn1 [Compound 129, 2-{6-[(3S)-3-cyclopropylpiperazin-1-yl]pyridazin-3-yl}-5-[1-(^2H3)methyl-1H-pyrazol-4-yl]pyridin-3-ol]"
10,≤ 100 nM,"CC(C)(C)NC1CCN(c2ncc(-c3ncc(-c4cn[nH]c4)cc3O)nn2)C1 (stereo not shown) [Compound 136, 2-{3-[3-(tert-butylamino)pyrrolidin-1-yl]-1,2,4-triazin-6-yl}-5-(1H-pyrazol-4-yl)pyridin-3-ol]"
11,≤ 100 nM,"Oc1cc(-n2nccn2)cnc1-c1ccc(N2CCN[C@@H](C3CC3)C2)nn1 [Compound 128, 2-{6-[(3S)-3-cyclopropylpiperazin-1-yl]pyridazin-3-yl}-5-(2H-1,2,3-triazol-2-yl)pyridin-3-ol]"
12,≤ 100 nM,"CC1(C)CC(Oc2ccc(-c3ncc(-c4cn[nH]c4)cc3O)nn2)CC2(CC2)N1 (stereo not shown) [Compound 27, 2-{6-[(5,5-dimethyl-4-azaspiro[2.5]octan-7-yl)oxy]pyridazin-3-yl}-5-(1H-pyrazol-4-yl)pyridin-3-ol]"
13,≤ 100 nM,"COc1cc(-c2cnc(-c3ccc(OC4CC(C)(C)NC(C)(C)C4F)nn3)c(O)c2)nn2cc(C)nc12 (mixture of isomers) [Compound 57, 2-(6-{[(3R,4S)-3-fluoro-2,2,6,6-tetramethylpiperidin-4-yl]oxy}pyridazin-3-yl)-5-(8-methoxy-2-methylimidazo[1,2-b]pyridazin-6-yl)pyridin-3-ol and 2-(6-{[(3S,4R)-3-fluoro-2,2,6,6-tetramethylpiperidin-4-yl]oxy}pyridazin-3-yl)-5-(8-methoxy-2-methylimidazo[1,2-b]pyridazin-6-yl)pyridin-3-ol]"
14,≤ 100 nM,"2-(6-{[(3S,4S)-3-fluoro-2,2,6,6-tetramethylpiperidin-4-yl]amino}pyridazin-3-yl)-5-(1H-pyrazol-3-yl)pyridin-3-ol and 2-(6-{[(3R,4R)-3-fluoro-2,2,6,6-tetramethylpiperidin-4-yl]amino}pyridazin-3-yl)-5-(1H-pyrazol-3-yl)pyridin-3-ol [Compound 16]"
15,≤ 100 nM,"Cc1cn2nc(-c3cnc(-c4ccc(OC5CC(C)(C)NC(C)(C)C5)nn4)c(O)c3)cc(C)c2n1 [Compound 50, 5-(2,8-dimethylimidazo[1,2-b]pyridazin-6-yl)-2-{6-[(2,2,6,6-tetramethylpiperidin-4-yl)oxy]pyridazin-3-yl}pyridin-3-ol]"
